± gives the expanded uncertainty stated by the source.
Experiment: xn = mol fraction of the nth substance listed
Conditions: 279.15 K, 101 kPa, Liquid

## C1CCOC1 [tetrahydrofuran] + O
x1 = 0.046
  mass density: 996.6 ± 5.9 kg/m3
  speed of sound: 1571.5 ± 13 m/s
x1 = 0.086
  mass density: 994.4 ± 5.9 kg/m3
  speed of sound: 1610.7 ± 13 m/s
x1 = 0.19
  mass density: 979 ± 6.2 kg/m3
  speed of sound: 1554 ± 13 m/s
x1 = 0.33
  mass density: 970.5 ± 6.7 kg/m3
  speed of sound: 1474.2 ± 12 m/s
x1 = 0.54
  mass density: 934 ± 7.4 kg/m3
  speed of sound: 1420.7 ± 12 m/s
x1 = 0.74
  mass density: 919.2 ± 8.6 kg/m3
  speed of sound: 1396.7 ± 12 m/s

## O [water] + CC#N
x2 = 0
  mass density: 999.9 ± 3.1 kg/m3
  speed of sound: 1430.4 ± 12 m/s

## O [water] + CN(C)C=O
x2 = 0
  mass density: 999.9 ± 3.1 kg/m3
  speed of sound: 1430.4 ± 12 m/s

## O [water] + C1COCCO1
x2 = 0
  mass density: 999.9 ± 3.1 kg/m3
  speed of sound: 1430.4 ± 12 m/s

## O [water] + C1CCOC1
x2 = 0
  mass density: 999.9 ± 5.8 kg/m3
  speed of sound: 1433 ± 12 m/s

## C1COCCO1 [1,4-dioxane] + O
x1 = 0.018
  mass density: 1008.9 ± 3.2 kg/m3
  speed of sound: 1490 ± 12 m/s
x1 = 0.048
  mass density: 1021 ± 3.3 kg/m3
  speed of sound: 1544.4 ± 13 m/s
x1 = 0.077
  mass density: 1031.1 ± 3.4 kg/m3
  speed of sound: 1580 ± 13 m/s
x1 = 0.096
  mass density: 1035.1 ± 3.5 kg/m3
  speed of sound: 1590.4 ± 13 m/s
x1 = 0.24
  mass density: 1051.2 ± 4.1 kg/m3
  speed of sound: 1587.6 ± 13 m/s
x1 = 0.387
  mass density: 1052.8 ± 4.9 kg/m3
  speed of sound: 1531.6 ± 13 m/s
x1 = 0.595
  mass density: 1051.7 ± 6.3 kg/m3
  speed of sound: 1479.4 ± 13 m/s

## CN(C)C=O [dimethylformamide] + O
x1 = 0.023
  mass density: 1000.9 ± 3.2 kg/m3
  speed of sound: 1511.6 ± 13 m/s
x1 = 0.0485
  mass density: 1002.9 ± 3.2 kg/m3
  speed of sound: 1578.6 ± 13 m/s
x1 = 0.0714
  mass density: 1005.2 ± 3.3 kg/m3
  speed of sound: 1625 ± 13 m/s
x1 = 0.0972
  mass density: 1007.3 ± 3.4 kg/m3
  speed of sound: 1664.6 ± 14 m/s
x1 = 0.2457
  mass density: 1009.7 ± 3.9 kg/m3
  speed of sound: 1748 ± 14 m/s
x1 = 0.3865
  mass density: 1002.2 ± 4.5 kg/m3
  speed of sound: 1714.6 ± 14 m/s
x1 = 0.5924
  mass density: 986.6 ± 5.7 kg/m3
  speed of sound: 1646 ± 14 m/s
x1 = 0.844
  mass density: 970 ± 7.6 kg/m3
  speed of sound: 1564 ± 14 m/s

## CC#N [acetonitrile] + O
x1 = 0.053
  mass density: 986.6 ± 3.2 kg/m3
  speed of sound: 1540 ± 13 m/s
x1 = 0.091
  mass density: 974.3 ± 3.2 kg/m3
  speed of sound: 1549.6 ± 13 m/s
x1 = 0.146
  mass density: 955.5 ± 3.3 kg/m3
  speed of sound: 1511.8 ± 13 m/s
x1 = 0.187
  mass density: 941.9 ± 3.3 kg/m3
  speed of sound: 1476.2 ± 12 m/s
x1 = 0.296
  mass density: 909.5 ± 3.6 kg/m3
  speed of sound: 1451 ± 12 m/s
x1 = 0.376
  mass density: 888.4 ± 3.8 kg/m3
  speed of sound: 1425 ± 12 m/s
x1 = 0.518
  mass density: 859 ± 4.2 kg/m3
  speed of sound: 1387.2 ± 12 m/s
x1 = 0.692
  mass density: 831.5 ± 4.9 kg/m3
  speed of sound: 1352 ± 12 m/s
x1 = 0.889
  mass density: 807.2 ± 5.9 kg/m3
  speed of sound: 1321 ± 12 m/s

Source: the NIST ThermoML archive (doi:10.1016/j.jct.2006.08.007)
